{"source": "patent US11124479B2", "about": "“Oligopyrroles as antagonists of islet amyloid polypeptide oligomerization” (New York University, priority 2017, dated 2021)", "key": {"[1]": {"target": "T1, islet amyloid polypeptide (IAPP) (Homo sapiens, UniProt P10997)", "T1 construct": "IAPP is a 37 residue neuropancreatic hormone peptide; purchased Anaspec (Fremont, Calif.)", "T1 sequence (P10997 34-70 limits assumed)": "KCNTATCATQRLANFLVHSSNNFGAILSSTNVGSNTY", "assay": "ThT-based kinetic assay of IAPP fibrillation", "assay_type": "biochemical", "settings": "for relative t50 of IAPP fibrillation versus control reaction: 15 μM IAPP, equimolar ratio", "description": "The aggregation kinetics of IAPP was probed using an exogenous reporter, Thioflavin T (ThT), which quantifies the amount of fibers in solution without perturbing the aggregation kinetics of IAPP (see Wolfe, L. S.; Calabrese, M. F.; Nath, A.; Blaho, D. V.; Miranker, A. D.; Xiong, Y. Proc. Natl. Acad. Sci. U.S.A. 2010, 107, 16863-16868; Levine, H. Protein Sci. 1993, 2, 404-410). […] The kinetics of IAPP fibrillation was quantified using the reaction midpoint, t50, which is the time required to reach 50% fluorescence in the fibrillation reaction (FIG. 8).\nKinetic assays were conducted on a FlexStation 3 Multi-Mode Microplate reader from Molecular Devices (Sunnyvale, Calif.). Experiments were conducted in triplicate in a 96-well plate with a final volume of 200 μL per well. Every measurement was an average of 50 readings. The aggregation of IAPP was initiated by its addition from a stock solution (1 mM in DMSO) to phosphate buffer. The stoichiometry ratio for ThT to IAPP was 0.5:1. Peptide aggregation was monitored by ThT fluorescence (λex=445 nm and λem=485 nm). The blank sample contained all the components of the peptide samples except peptide. The sample data were processed by subtracting the blank and renormalizing the fluorescence intensity by setting the maximum value to 1.\nKinetic assays in the presence of the compounds of the invention were conducted under the same conditions. Small molecules were added from a stock solution (1 mM or 10 mM in DMSO) to keep the final concentration of DMSO less than 1.0% (v/v). Small molecules were added to the wells with ThT and buffer and mixed gently with a pipette before adding IAPP. To keep the conditions identical, an equal amount of DMSO was added to the wells with IAPP only reactions. For the aggregation kinetics of Aβ42, the peptide was dissolved in 1N NaOH (0.5-1 mM) and vortexed for 2 min. to ensure the complete solubility. The aggregation of 3 μM Aβ42 was initiated by addition of peptide from a stock solution (in 1 N NaOH, 0.5-1 mM) to phosphate buffer.\nKinetic profiles were processed using Origin (version 9.1). Kinetic curves were fit using the built-in sigmoidal fit. Each run was fit independently to extract the t50 (time required to reach 50% of the maximum fluorescence intensity). Error bars represent standard deviations from the mean of at least three independent experiments.\nThe membrane model system selected for the amyloid assays is a mixture of DOPG (dioleoylphosphatidylglycerol) and DOPC (dioleoylphosphatidylcholine) at 3:7 molar ratio, which mimics physiological conditions (Ono, K.; Condron, M. M.; Teplow, D. B. Proc. Natl. Acad. Sci. U.S.A. 2009, 106, 14745-14750). The lipid catalyzed aggregation of IAPP was initiated by adding freshly prepared 15 μM IAPP (1 mM stock solution in DMSO) to the phosphate buffer (50 mM NaPi, 150 mM KCl, pH 7.4) containing 15 μM ThT and 750 μM of unilamellar liposomes (LUVs, DOPG:DOPC, 3:7, d=100 nm)."}, "[2]": {"target": "T1, islet amyloid polypeptide (IAPP)", "assay": "Circular dichroism (CD) spectroscopy of IAPP conformation", "settings": "for IAPP conformation by CD: 15 μM IAPP, equimolar ratio", "experimental": "A freshly prepared stock solution of IAPP (500 μM in water) was diluted to 15 μM in phosphate buffer for CD measurements. The spectra of IAPP were recorded at 0.5 nm intervals from 190 to 260 nm with an averaging time of 10 sec. and an average of three repeats on an Aviv Stopped Flow CD Spectropolarimeter (Model 202SF). Spectra were recorded using the identical method as described above. ADH-101 was added to the solution of IAPP at an equimolar ratio. […]"}, "[3]": {"assay": "Self-aggregation by UV, centrifugation and DLS", "assay_type": "physicochemical", "description": "ADH-101 contains hydrophobic and negatively charged groups and presents a possibility for self-aggregation. It has been shown that the small molecules with self-aggregation tendencies can inhibit amyloid formation in a non-specific manner. Therefore, UV, centrifugation, and DLS were used to explore the self-aggregation properties of ADH-101 (FIG. 12A)."}, "[4]": {"target": "T1, islet amyloid polypeptide (IAPP)", "assay": "ThT-based kinetic assay of IAPP fibrillation", "assay_type": "biochemical"}}, "data": [{"smiles": "CCOC(=O)c1cc(NC(=O)c2cc(NC(=O)c3cc([N+](=O)[O-])cn3CC(C)C)cn2CC(C)C)cn1CCC(=O)O", "note": "[ADH-101]", "values": [{"measurement": "antagonist of oligomerization, fibrillation, and/or aggregation of IAPP (in words)", "setting": "[1]", "result": "effective antagonist"}, {"measurement": "inhibition of IAPP aggregation", "setting": "[1]; de novo (no lipid membrane), fivefold excess", "result": "completely abolishes"}, {"measurement": "relative t50 of IAPP fibrillation versus control reaction", "setting": "[1]; de novo / lipid free", "result": 4.4, "unit": "fold"}, {"measurement": "change in the intensity of ThT", "setting": "[1]; identical conditions without IAPP", "result": "no significant change"}, {"measurement": "relative t50 of IAPP fibrillation versus control reaction", "setting": "[1]; lipid catalyzed (750 μM LUVs, DOPG:DOPC 3:7)", "result": 2.7, "unit": "fold"}, {"measurement": "fold better inhibitor of IAPP fibrillation than Acid Fuchsin", "setting": "[1]; lipid catalyzed conditions", "result": 3.5, "unit": "fold"}, {"measurement": "fold better inhibitor of IAPP fibrillation than Curcumin", "setting": "[1]; lipid catalyzed conditions", "result": 2.2, "unit": "fold"}, {"measurement": "fold better inhibitor of IAPP fibrillation than EGCG", "setting": "[1]; lipid catalyzed conditions", "result": 3.3, "unit": "fold"}, {"measurement": "inhibition of IAPP fibrillation", "setting": "[1]; lipid catalyzed, stoichiometric ratio 10:1 (ADH-101:IAPP)", "result": "completely inhibits"}, {"measurement": "IAPP conformation by CD", "setting": "[2]; phosphate buffer, after 8 hours", "result": "no β-sheet conformation was observed"}, {"measurement": "conformation induced in IAPP", "setting": "[2]; FIG. 3B", "result": "induces an α-helical conformation"}, {"measurement": "induced CD signal around 340 nm", "setting": "[2]; incubated with IAPP at equimolar ratio", "result": "positive induced CD signal"}, {"measurement": "IAPP conformation by CD", "setting": "[2]; lipid membrane (600 μM DOPG:DOPC 3:7), after 1 hour", "result": "stays in an α-helical state"}, {"measurement": "diameter of species by DLS", "setting": "[3]; 50 μM, 150 mM KCl, 50 mM NaPi, pH 7.4", "result": "less than 10 nm"}, {"measurement": "concentration up to which the compound did not self-assemble", "setting": "[3]; phosphate buffer, UV and centrifugation", "result": "> 40", "unit": "µM"}, {"measurement": "inhibition of IAPP fibrillation when added during the lag phase, compared to premixed (t=0 h)", "setting": "[4]; added at 1 h and 3 h, equimolar ratio, 10 μM IAPP", "result": "equally effective"}, {"measurement": "effect on IAPP amyloid fibers (ThT fluorescence)", "setting": "[4]; added to the fibers", "result": "no effect"}, {"measurement": "factor of delay of IAPP amyloid kinetics", "setting": "[4]; cholesterol-containing LUVs (30% cholesterol), 15 μM IAPP, equimolar ratio", "result": 3.6}]}]}
